The source of these data is patent publication EP0093620A1, “Fungicidal N-phenylcarbamates” (priority 1982, dated 1983).

Assay [1] deals with drug-resistant strain of Venturia nashicola. Put plainly: Preventive effect on scab of pear, drug-resistant strain. The conditions noted are these: 200 ppm active ingredient, pear seedlings, spray.
Protocol: (§1) The leaves examined were measured for a percentage of infected area and classified into the corresponding disease indices, 0, 0.5, 1, 2, 4:
(§2) The disease severity was calculated according to the following equation: [formula]
(§3) The prevention value was calculated according to the following equation: [formula]
(§4) A plastic pot of 90 ml volume was filled with sandy soil, and seeds of pear (var: Chojuro) were sowed . therein. Cultivation was carried out in a greenhouse for 20 days. Onto the resulting seedlings, the test compound formulated in emulsifiable concentrate or wettable powder and diluted with water was sprayed at a rate of 10 ml per pot. Then, the seedlings were inoculated with a spore suspension of the drug-resistant or drug-sensitive strain of Venturia nashicola by spraying. The resulting plants were placed at 20°C under a condition of high humidity for 3 days and then at 20°C under irradiation with a fluorescent lamp for 20 days.
Assay [2] has as its system drug-sensitive strain of Botrytis cinerea. Put plainly: Preventive effect on gray mold of cucumber, drug-sensitive strain. The conditions noted are these: 200 ppm active ingredient, cucumber seedlings, mycelial disks, 3 days.
Protocol: as §1, §2, §3
(§5) Preventive effect on gray mold of cucumber (Botrytis cinerea):-
(§6) Plastic pots of 90 ml volume were filled with sandy soil, and seeds of cucumber (var: Sagami-hanjiro) were sowed therein. Cultivation was carried out in a greenhouse for 8 days to obtain cucumber seedlings expanding cotyledons. Onto the resulting seedlings, the test compound formulated in emulsifiable concentrate or wettable powder and diluted with water was sprayed at a rate of 10 ml per pot. After air-drying, the seedlings were inoculated with mycelial disks (5 mm in diameter) of the drug-resistant or drug-sensitive strain of Botrytis cinerea by putting them on the leaf surfaces. After the plants were infected by incubating under high humidity at 20°C for 3 days, the rates of disease severity were observed.
Assay [3] deals with drug-resistant strain of Botrytis cinerea. Put plainly: Preventive effect on gray mold of cucumber, drug-resistant strain. The settings on record: 200 ppm active ingredient, cucumber seedlings, mycelial disks, 3 days.
Protocol: as §1, §2, §3, §5, §6
The test system of assay [4] is drug-sensitive strain of Sphaerotheca fuliginea. The settings on record: for pest or weed control at 200 ppm: Podosphaera fuliginea, in Cucumis sativus, topical, 240 h, read-out: Prevention value when inoculated with drug-sensitive strain; for Prevention value when inoculated with drug-sensitive strain: 200 ppm active ingredient, cucumber seedlings, spray, 10 days after inoculation.
Protocol: (§7) Protective activity test on powdery mildew of cucumber (Sphaerotheca fuliginea):-
(§8) A flower pot of 90 ml volume was filed with sandy soil, and seeds of cucumber (var: Sagami-hanjiro) were sowed therein. Cultivation was carried out in a greenhouse for 8 days. Onto the resulting seedlings having cotyledons, the test compound formulated in emulsifiable concentrate or wettable powder and diluted with water was sprayed at a rate of 10 ml per pot. Then, the seedlings were inoculated with a spore suspension of the drug-resistant or drug-sensitive strain of Sphaerotheca fuliginea by spraying and further cultivated in the greenhouse. Ten days thereafter, the infectious state of-the plants was observed.
as §1, §2, §3

For assay [5], the system named is drug-sensitive strain of Cercospora beticola. The conditions noted are these: for pest or weed control at 200 ppm: Cercospora beticola, in Beta vulgaris, topical, 240 h, read-out: Prevention value when inoculated with drug-sensitive strain; for Prevention value when inoculated with drug-sensitive strain: 200 ppm active ingredient, sugarbeet seedlings, spray, 10 days.
Protocol: as §1, §2, §3
(§9) Preventive effect on cercospora leaf spot of sugarbeet (Cercospora beticola):-A flower pot of 90 ml volume was filled with sandy soil, and seeds of sugarbeet (var: Detroit dark red) were sowed therein. Cultivation was carried out in a greenhouse for 20 days. Onto the resulting seedlings, the test compound formulated in emulsifiable concentrate or wettable powder and diluted with water was sprayed at a rate of 10 ml per pot. Then, the seedlings were inoculated with a spore suspension of the drug-resistant or drug-sensitive strain of Cercospora beticola by spraying. The pot was covered with a polyvinyl chloride sheet to make a condition of high humidity, and cultivation was continued in the greenhouse for 10 days.

For assay [6], the system named is drug-sensitive strain of Venturia nashicola. Put plainly: Preventive effect on scab of pear, drug-sensitive strain. The settings on record: 200 ppm active ingredient, pear seedlings, spray.
Protocol: as §1, §2, §3, §4
In assay [7] the test system is drug-resistant strain of Cercospora beticola. The conditions noted are these: for pest or weed control at 200 ppm: Cercospora beticola, in Beta vulgaris, topical, 240 h, read-out: Prevention value when inoculated with drug-resistant strain; for Prevention value when inoculated with drug-resistant strain: 200 ppm active ingredient, sugarbeet seedlings, spray, 10 days.
Protocol: as §1, §2, §3, §9

The subject of assay [8] is drug-resistant strain of Sphaerotheca fuliginea. The settings on record: for pest or weed control at 200 ppm: Podosphaera fuliginea, in Cucumis sativus, topical, 240 h, read-out: Prevention value when inoculated with drug-resistant strain; for Prevention value when inoculated with drug-resistant strain: 200 ppm active ingredient, cucumber seedlings, spray, 10 days after inoculation.
Protocol: as §7, §8, §1, §2, §3

In assay [9] the test system is Pyricularia oryzae. The settings on record: in vivo.

On to `CCCCNC(=O)n1c(NC(=O)OC)nc2ccccc21` [A, Methyl 1-(butyl-carbamoyl)benz-imidazol-2-yl-carbamate], for which the “Prevention value when inoculated with drug-resistant strain” value in assay [1] and in [3] was 0% throughout. The “Prevention value when inoculated with drug-sensitive strain” value in assay [2] and in assay [6] was 100% each time. The pest or weed control at 200 ppm was 100% in [4], 100% in assay [5], 0% in assay [7] and 0% in assay [8].

For the molecule `O=C(Nc1cccc(Cl)c1)OCC#CCCl` [Barban, 4-chloro-2-butynyl N-(3-chlorophenyl)carbamate], the pest or weed control at 200 ppm stood at 0% in assay [4], 0% in assay [5], 34% in assay [7] and 25% in assay [8].

Turning to `COC(=O)Nc1nc2ccccc2[nH]1` [C, Methyl benzimidazol-2-ylcarbamate], the pest or weed control at 200 ppm in assay [4] was determined as 100%; in assay [5] it was 100%; in assay [7] it was 0%; in [8], 0%.

In the case of `O=C(Nc1cccc(Cl)c1)OCCCl` [CEPC], the “Prevention value when inoculated with drug-sensitive strain” value in [4] and in assay [5] was 0% in each case. Also, the “Prevention value when inoculated with drug-resistant strain” value in [7] and in assay [8] was 0% in each case.

As to `C#CC(C)OC(=O)Nc1cccc(Cl)c1` (stereo not drawn) [Chlorbufam, 1-methyl-2-propynyl N-(3-chlorophenyl)carbamate], the pest or weed control at 200 ppm in [4] worked out at 100%; in assay [5] it was 100%; in [7], 0%; in [8] it was 0%.

For `CC(C)OC(=O)Nc1cccc(Cl)c1` [Chlorpropham, isopropyl N-(3-chlorophenyl)carbamate], the pest or weed control at 200 ppm in assay [4], in [5], in assay [7] and in assay [8] was 0% each time.

In the case of `CCOc1ccc(NC(=O)OC(C)C)cc1CC` [Compound No. 50, isopropyl N-(3-ethyl-4-ethoxyphenyl)carbamate], the “Prevention value when inoculated with drug-resistant strain” value is 98% in [1] and 100% in assay [3]. In addition, the “Prevention value when inoculated with drug-sensitive strain” value in [2] and in [6] was 0% each time. In addition, the pest or weed control at 200 ppm in assay [4] was 0%; in assay [5], 0%; in assay [7], 100%; in [8], 100%.

As for `CCOc1ccc(N(C(=O)OC(C)C)C(=O)c2ccccc2)cc1COC` [Compound No. 134, isopropyl N-benzoyl-N-(3-methoxymethyl-4-ethoxyphenyl)carbamate], the “Prevention value when inoculated with drug-sensitive strain” value in assay [2] is 0%. Besides, the “Prevention value when inoculated with drug-resistant strain” value in assay [3] was 100%.

As to `COC(=O)NC(=S)Nc1ccccc1NC(=S)NC(=O)OC` [E, 1,2-Bis(3-methoxy-carbonyl-2-thio-ureido)benzene], the “Prevention value when inoculated with drug-resistant strain” value in [1] and in assay [3] was 0% each time. Also, the “Prevention value when inoculated with drug-sensitive strain” value in [2] and in assay [6] was 100% each time. For the same molecule, the pest or weed control at 200 ppm is 100% in assay [4], 100% in assay [5], 0% in [7] and 0% in assay [8].

Regarding `CCOP(=O)(Sc1ccccc1)Sc1ccccc1` [Edifenphos], the Prevention value in assay [9] is on record as 97%.

Take `CC(C)OC(=O)Nc1ccccc1` [Propham, isopropyl N-phenylcarbamate]: the pest or weed control at 200 ppm in [4], in assay [5], in [7] and in assay [8] was 0% in each case.

For `COC(=O)Nc1ccc(Cl)c(Cl)c1` [Swep], the “Prevention value when inoculated with drug-sensitive strain” value in [4] and in assay [5] was 0% throughout. The “Prevention value when inoculated with drug-resistant strain” value in assay [7] and in [8] was 0% throughout.

Regarding `CCOc1ccc(NC(=O)OC(C)C)cc1COC` [compound 77, isopropyl N-(3-methoxymethyl-4-ethoxyphenyl)carbamate], the “Prevention value when inoculated with drug-resistant strain” value in assay [1] and in [3] was 100% throughout. In addition, the “Prevention value when inoculated with drug-sensitive strain” value in assay [2] and in [6] was 0% in each case. In addition, the pest or weed control at 200 ppm in [4] was 0%; in assay [5], 0%; in assay [7], 100%; in assay [8] it was 100%.
